According to article PMC10850145, “Hormonal steroids induce multidrug resistance and stress response genes in Neisseria gonorrhoeae by binding to MtrR” (Nature Communications, 2024):
Where “and” joins values, the source holds several entries; their conditions need not be identical. Equal values may be shown once. Read-outs that look alike come from different tables or passages of the source.

Key:
MtrR D171A = target: T1, MtrR D171A (Neisseria gonorrhoeae, UniProt P39897, D171A); assay: biochemical; type: binding
T1 construct: Hexa-histidine tag with TEV protease cleavage site (N, cleaved yes); made in house; host or cells: E. coli Rosetta Gami B(DE3) pLysS
T1 sequence (P39897 whole entry D171A): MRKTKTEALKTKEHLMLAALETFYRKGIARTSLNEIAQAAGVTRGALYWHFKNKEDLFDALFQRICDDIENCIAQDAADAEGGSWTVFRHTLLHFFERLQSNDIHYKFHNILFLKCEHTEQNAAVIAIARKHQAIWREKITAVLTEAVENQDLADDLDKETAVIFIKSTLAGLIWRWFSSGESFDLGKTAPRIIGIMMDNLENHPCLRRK

rpoH-lacZ expression = type: cell-based, Neisseria gonorrhoeae; settings: for Miller units, single well: individual replicate; for Plate-6 (Testosterone) Miller units, Mean / Plate-6 (Testosterone) Miller units: right (rpoH) half of sheet
[1] = rpoH-lacZ, ΔmtrR + mtrR D171A in trans, 6.25 µM hormone, single replicate
[2] = rpoH-lacZ, ΔmtrR + mtrR D171A in trans, 12.5 µM hormone, single replicate
[3] = rpoH-lacZ, ΔmtrR + mtrR D171A in trans, 25 µM hormone, single replicate
[4] = rpoH-lacZ, ΔmtrR + mtrR D171A in trans, 50 µM hormone, single replicate
[5] = rpoH-lacZ, ΔmtrR + mtrR WT in trans, 25 µM hormone, single replicate

C[C@]12CC[C@H]3[C@@H](CCC4=CC(=O)CC[C@@]43C)[C@@H]1CC[C@@H]2O [Testosterone, testosterone]
Kd (MtrR D171A): 30.9 ± 24.2 µM | Miller units, single well (rpoH-lacZ expression; 6.25 µM hormone, plate columns 1-6 (WT)): 114 Miller units and 127 Miller units and 153 Miller units | Miller units, Mean (rpoH-lacZ expression; 6.25 µM hormone, plate columns 1-6 (WT), mean of 4 wells): 125 Miller units | Miller units, Mean (rpoH-lacZ expression; 6.25 µM hormone, plate columns 1-6 (WT), mean of plate rows 5-8 (rpoH)): 125 Miller units | Miller units (rpoH-lacZ expression; 6.25 µM hormone, plate columns 1-6 (WT), plate rows 5-8 (rpoH), single well): 114 Miller units and 127 Miller units and 153 Miller units and 108 Miller units | Miller units (rpoH-lacZ expression; 6.25 µM hormone, plate columns 7-12 (second strain not given), plate rows 5-8 (rpoH), single well): 161 Miller units and 167 Miller units and 191 Miller units and 162 Miller units | Miller units, Mean (rpoH-lacZ expression; 6.25 µM hormone, plate columns 7-12 (second strain), mean of plate rows 5-8 (rpoH)): 170 Miller units | Miller units, single well (rpoH-lacZ expression; 6.25 µM hormone, plate columns 7-12 (second strain, not WT)): 161 Miller units and 167 Miller units and 191 Miller units | Miller units, Mean (rpoH-lacZ expression; 6.25 µM hormone, plate columns 7-12 (second strain, not WT), mean of 4 wells): 170 Miller units | Plate-6 (Testosterone) Miller units, Mean (rpoH-lacZ expression; 6.25 µM, plate column 3, mean of plate rows 5-8): 43 Miller units | Plate-6 (Testosterone) Miller units (rpoH-lacZ expression; 6.25 µM, plate column 3, plate rows 5-8, single wells): 39 Miller units and 46 Miller units and 47 Miller units | Plate-6 (Testosterone) Miller units, Mean (rpoH-lacZ expression; 6.25 µM, plate column 9, mean of plate rows 5-8): 64 Miller units | Plate-6 (Testosterone) Miller units (rpoH-lacZ expression; 6.25 µM, single wells): 55 Miller units and 57 Miller units and 65 Miller units and 80 Miller units | Miller units, single well (rpoH-lacZ expression; 12.5 µM hormone, plate columns 1-6 (WT)): 120 Miller units and 124 Miller units and 149 Miller units | Miller units, Mean (rpoH-lacZ expression; 12.5 µM hormone, plate columns 1-6 (WT), mean of 4 wells): 130 Miller units | Miller units, Mean (rpoH-lacZ expression; 12.5 µM hormone, plate columns 1-6 (WT), mean of plate rows 5-8 (rpoH)): 130 Miller units | Miller units (rpoH-lacZ expression; 12.5 µM hormone, plate columns 1-6 (WT), plate rows 5-8 (rpoH), single well): 120 Miller units and 124 Miller units and 149 Miller units and 125 Miller units | Miller units (rpoH-lacZ expression; 12.5 µM hormone, plate columns 7-12 (second strain not given), plate rows 5-8 (rpoH), single well): 161 Miller units and 177 Miller units and 186 Miller units and 176 Miller units | Miller units, Mean (rpoH-lacZ expression; 12.5 µM hormone, plate columns 7-12 (second strain), mean of plate rows 5-8 (rpoH)): 175 Miller units | Miller units, single well (rpoH-lacZ expression; 12.5 µM hormone, plate columns 7-12 (second strain, not WT)): 161 Miller units and 177 Miller units and 186 Miller units | Miller units, Mean (rpoH-lacZ expression; 12.5 µM hormone, plate columns 7-12 (second strain, not WT), mean of 4 wells): 175 Miller units | Plate-6 (Testosterone) Miller units, Mean (rpoH-lacZ expression; 12.5 µM, plate column 4, mean of plate rows 5-8): 52 Miller units | Plate-6 (Testosterone) Miller units (rpoH-lacZ expression; 12.5 µM, plate column 4, plate rows 5-8, single wells): 51 Miller units and 50 Miller units and 56 Miller units and 52 Miller units | Plate-6 (Testosterone) Miller units, Mean (rpoH-lacZ expression; 12.5 µM, plate column 10, mean of plate rows 5-8): 62 Miller units | Plate-6 (Testosterone) Miller units (rpoH-lacZ expression; 12.5 µM, plate column 10, plate rows 5-8, single wells): 58 Miller units and 54 Miller units and 63 Miller units and 74 Miller units | Miller units, single well (rpoH-lacZ expression; 25 µM hormone, plate columns 1-6 (WT)): 127 Miller units and 137 Miller units | Miller units, Mean (rpoH-lacZ expression; 25 µM hormone, plate columns 1-6 (WT), mean of 4 wells): 133 Miller units | Miller units, Mean (rpoH-lacZ expression; 25 µM hormone, plate columns 1-6 (WT), mean of plate rows 5-8 (rpoH)): 133 Miller units | Miller units (rpoH-lacZ expression; 25 µM hormone, plate columns 1-6 (WT), plate rows 5-8 (rpoH), single well): 127 Miller units and 137 Miller units and 133 Miller units | Miller units (rpoH-lacZ expression; 25 µM hormone, plate columns 7-12 (second strain not given), plate rows 5-8 (rpoH), single well): 168 Miller units and 179 Miller units and 147 Miller units and 185 Miller units | Miller units, Mean (rpoH-lacZ expression; 25 µM hormone, plate columns 7-12 (second strain), mean of plate rows 5-8 (rpoH)): 170 Miller units | Miller units, single well (rpoH-lacZ expression; 25 µM hormone, plate columns 7-12 (second strain, not WT)): 168 Miller units and 179 Miller units and 147 Miller units | Miller units, Mean (rpoH-lacZ expression; 25 µM hormone, plate columns 7-12 (second strain, not WT), mean of 4 wells): 170 Miller units | Plate-6 (Testosterone) Miller units, Mean (rpoH-lacZ expression; 25 µM, plate column 5, mean of plate rows 5-8): 63 Miller units | Plate-6 (Testosterone) Miller units (rpoH-lacZ expression; 25 µM, plate column 5, plate rows 5-8, single wells): 68 Miller units and 55 Miller units and 57 Miller units and 70 Miller units | Plate-6 (Testosterone) Miller units, Mean (rpoH-lacZ expression; 25 µM, plate column 11, mean of plate rows 5-8): 65 Miller units | Plate-6 (Testosterone) Miller units (rpoH-lacZ expression; 25 µM, plate column 11, plate rows 5-8, single wells): 64 Miller units and 60 Miller units and 68 Miller units and 67 Miller units | Miller units, single well (rpoH-lacZ expression; 50 µM hormone, plate columns 1-6 (WT)): 140 Miller units and 146 Miller units and 175 Miller units | Miller units, Mean (rpoH-lacZ expression; 50 µM hormone, plate columns 1-6 (WT), mean of 4 wells): 152 Miller units | Miller units, Mean (rpoH-lacZ expression; 50 µM hormone, plate columns 1-6 (WT), mean of plate rows 5-8 (rpoH)): 152 Miller units | Miller units (rpoH-lacZ expression; 50 µM hormone, plate columns 1-6 (WT), plate rows 5-8 (rpoH), single well): 140 Miller units and 146 Miller units and 175 Miller units | Miller units (rpoH-lacZ expression; 50 µM hormone, plate columns 7-12 (second strain not given), plate rows 5-8 (rpoH), single well): 166 Miller units and 158 Miller units and 156 Miller units | Miller units, Mean (rpoH-lacZ expression; 50 µM hormone, plate columns 7-12 (second strain), mean of plate rows 5-8 (rpoH)): 162 Miller units | Miller units, single well (rpoH-lacZ expression; 50 µM hormone, plate columns 7-12 (second strain, not WT)): 166 Miller units and 158 Miller units and 156 Miller units | Miller units, Mean (rpoH-lacZ expression; 50 µM hormone, plate columns 7-12 (second strain, not WT), mean of 4 wells): 162 Miller units | Plate-6 (Testosterone) Miller units, Mean (rpoH-lacZ expression; 50 µM, plate column 6, mean of plate rows 5-8): 68 Miller units | Plate-6 (Testosterone) Miller units (rpoH-lacZ expression; 50 µM, plate column 6, plate rows 5-8, single wells): 76 Miller units and 71 Miller units and 62 Miller units and 63 Miller units | Plate-6 (Testosterone) Miller units, Mean (rpoH-lacZ expression; 50 µM, plate column 12, mean of plate rows 5-8): 57 Miller units | Plate-6 (Testosterone) Miller units (rpoH-lacZ expression; 50 µM, single wells): 65 Miller units and 49 Miller units and 56 Miller units and 58 Miller units | induction of rpoH expression (rpoH-lacZ expression; complemented (MtrR+) strains, increasing hormone): could be induced | induction of rpoH expression (rpoH-lacZ expression; loss of MtrR or MtrR-D171A strain): abrogated | Miller units (rpoH-lacZ expression; [1]): 55 Miller units and 65 Miller units | β-galactosidase activity (Miller units) (rpoH-lacZ expression; [1]): 55 Miller units and 57 Miller units and 80 Miller units | Miller units (rpoH-lacZ expression; [2]): 63 Miller units | β-galactosidase activity (Miller units) (rpoH-lacZ expression; [2]): 58 Miller units and 54 Miller units and 74 Miller units | Miller units (rpoH-lacZ expression; [3]): 68 Miller units | β-galactosidase activity (Miller units) (rpoH-lacZ expression; [3]): 64 Miller units and 60 Miller units and 67 Miller units | Miller units (rpoH-lacZ expression; [4]): 56 Miller units | β-galactosidase activity (Miller units) (rpoH-lacZ expression; [4]): 65 Miller units and 49 Miller units and 58 Miller units | β-galactosidase activity (Miller units) (rpoH-lacZ expression; rpoH-lacZ, ΔmtrR + mtrR WT in trans, 6.25 µM hormone, single replicate): 39 Miller units and 46 Miller units and 47 Miller units | β-galactosidase activity (Miller units) (rpoH-lacZ expression; rpoH-lacZ, ΔmtrR + mtrR WT in trans, 12.5 µM hormone, single replicate): 51 Miller units and 50 Miller units and 56 Miller units and 52 Miller units | Miller units (rpoH-lacZ expression; [5]): 55 Miller units | β-galactosidase activity (Miller units) (rpoH-lacZ expression; [5]): 68 Miller units and 55 Miller units and 57 Miller units and 70 Miller units | β-galactosidase activity (Miller units) (rpoH-lacZ expression; rpoH-lacZ, ΔmtrR + mtrR WT in trans, 50 µM hormone, single replicate): 76 Miller units and 71 Miller units and 62 Miller units and 63 Miller units | β-galactosidase activity (Miller units) (rpoH-lacZ expression; rpoH-lacZ, ΔmtrR strain, 6.25 µM hormone, single replicate): 119 Miller units and 89 Miller units and 76 Miller units | β-galactosidase activity (Miller units) (rpoH-lacZ expression; rpoH-lacZ, ΔmtrR strain, 12.5 µM hormone, single replicate): 126 Miller units and 100 Miller units and 81 Miller units | β-galactosidase activity (Miller units) (rpoH-lacZ expression; rpoH-lacZ, ΔmtrR strain, 25 µM hormone, single replicate): 155 Miller units and 93 Miller units and 79 Miller units | β-galactosidase activity (Miller units) (rpoH-lacZ expression; rpoH-lacZ, ΔmtrR strain, 50 µM hormone, single replicate): 151 Miller units and 101 Miller units and 93 Miller units | Miller units (rpoH-lacZ expression; rpoH-lacZ, ΔmtrR, 6.25 µM hormone, single replicate): 100 Miller units | Miller units (rpoH-lacZ expression; rpoH-lacZ, ΔmtrR, 12.5 µM hormone, single replicate): 101 Miller units | Miller units (rpoH-lacZ expression; rpoH-lacZ, ΔmtrR, 25 µM hormone, single replicate): 122 Miller units | Miller units (rpoH-lacZ expression; rpoH-lacZ, ΔmtrR, 50 µM hormone, single replicate): 132 Miller units | β-galactosidase activity, rpoH-lacZ, Mean (rpoH-lacZ expression; strain WT (FA19/pLES94-rpoH), hormone 6.25 µM): 69 Miller units | β-galactosidase activity, rpoH-lacZ, Mean (rpoH-lacZ expression; strain WT (FA19/pLES94-rpoH), hormone 12.5 µM): 81 Miller units | β-galactosidase activity, rpoH-lacZ, Mean (rpoH-lacZ expression; strain WT (FA19/pLES94-rpoH), hormone 25 µM): 98 Miller units | β-galactosidase activity, rpoH-lacZ, Mean (rpoH-lacZ expression; strain WT (FA19/pLES94-rpoH), hormone 50 µM): 117 Miller units | activation of rpoH (rpoH-lacZ expression; strain producing MtrR R176E): significantly less activation | β-galactosidase activity, rpoH-lacZ, Mean (rpoH-lacZ expression; strain ΔmtrR (FA19 ∆mtrR/pLES94-rpoH), hormone 6.25 µM): 96 Miller units | β-galactosidase activity, rpoH-lacZ, Mean (rpoH-lacZ expression; strain ΔmtrR (FA19 ∆mtrR/pLES94-rpoH), hormone 12.5 µM): 102 Miller units | β-galactosidase activity, rpoH-lacZ, Mean (rpoH-lacZ expression; strain ΔmtrR (FA19 ∆mtrR/pLES94-rpoH), hormone 25 µM): 112 Miller units | β-galactosidase activity, rpoH-lacZ, Mean (rpoH-lacZ expression; strain ΔmtrR (FA19 ∆mtrR/pLES94-rpoH), hormone 50 µM): 119 Miller units | β-galactosidase activity, rpoH-lacZ, Mean (rpoH-lacZ expression; strain ΔmtrR + mtrR D171A (pGCC3-mtrR D171A), hormone 6.25 µM): 64 Miller units | β-galactosidase activity, rpoH-lacZ, Mean (rpoH-lacZ expression; strain ΔmtrR + mtrR D171A (pGCC3-mtrR D171A), hormone 12.5 µM): 62 Miller units | β-galactosidase activity, rpoH-lacZ, Mean (rpoH-lacZ expression; strain ΔmtrR + mtrR D171A (pGCC3-mtrR D171A), hormone 25 µM): 65 Miller units
